# Assay results published in paper PMC11707700, “Exploiting fourth-generation synchrotron radiation for enzyme and photoreceptor characterization” (IUCrJ, 2025).
# Experiments:
# SaBphP2-PCM = target: T1, SaBphP2-PCM (Allostigmatella aurantiaca, UniProt Q09E27); assay: serial synchrotron X-ray crystallography (room temperature); type: binding; details: covalent; chromophore; dark Pr state, 2.1 A refinement; also difference map 700 ms after 640 nm light
# T1 construct: gene STIAU_8420; photosensory core module (PAS-GAF-PHY), lacks C-terminal effector (histidine kinase) domain; recombinant; homodimer
# T1 sequence (Q09E27 1-490): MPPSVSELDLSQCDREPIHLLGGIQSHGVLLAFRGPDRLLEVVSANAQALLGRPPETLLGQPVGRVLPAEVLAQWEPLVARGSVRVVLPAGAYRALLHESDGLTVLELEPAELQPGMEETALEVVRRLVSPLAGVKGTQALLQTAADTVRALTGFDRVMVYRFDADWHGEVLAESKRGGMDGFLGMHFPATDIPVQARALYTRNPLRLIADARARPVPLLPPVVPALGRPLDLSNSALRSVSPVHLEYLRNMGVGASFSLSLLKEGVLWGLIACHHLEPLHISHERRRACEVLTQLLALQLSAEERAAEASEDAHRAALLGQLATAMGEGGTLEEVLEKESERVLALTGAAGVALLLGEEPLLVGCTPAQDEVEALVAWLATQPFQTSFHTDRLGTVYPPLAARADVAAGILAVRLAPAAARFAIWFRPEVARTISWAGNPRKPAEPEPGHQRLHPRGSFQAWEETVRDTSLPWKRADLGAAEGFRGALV
# [1] = target: T2, photoactive yellow protein (PYP) (Halorhodospira halophila, UniProt P16113); assay: as above; type: binding; details: covalent; thioester to conserved cysteine; space group P6_5, 1.8 A (fixed target) and 1.9 A (tape drive); PEG 4000, MES pH 6.5
# T2 construct: full length, 125 amino acids, 14 kDa; overexpressed in Escherichia coli; chromophore attached to the conserved cysteine
# T2 sequence (P16113 1-125): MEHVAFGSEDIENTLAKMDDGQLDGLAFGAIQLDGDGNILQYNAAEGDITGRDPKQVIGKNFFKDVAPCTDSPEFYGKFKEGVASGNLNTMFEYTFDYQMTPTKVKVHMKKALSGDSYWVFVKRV
Structure (SMILES),serial synchrotron X-ray crystallography (room temperature) (SaBphP2-PCM),serial synchrotron X-ray crystallography (room temperature) [1]
C=CC1=C(C)/C(=C/C2=NC(=C\c3[nH]c(/C=C4\NC(=O)C(C)=C4C=C)c(C)c3CCC(=O)O)/C(CCC(=O)O)=C2C)NC1=O [biliverdin],"The DED features, localized to the BV chromophore, indicate displacement of the BV",–
O=C(O)/C=C/c1ccc(O)cc1 [p-coumaric acid],–,The pCA chromophore pocket is marked by the red box
